Test system: cell lines from the Cancer Cell Line Encyclopedia (CCLE)
Assay: High-throughput cell viability assay, CCLE cell line panel (n = 356)
Assay type: cell-based, human
Protocol: Cell lines were partitioned into sensitive and insensitive groups based on compound potency (IC50). […] All other cell lines were obtained from ATCC (American Type Culture Collection), DSMZ (Deutsche Sammlung von Mikroorganismen und Zellkulturen), and HSRRB (Health Science Research Resources Bank) and cultured in RPMI or Dulbecco's modified Eagle's medium plus 10% FBS (Invitrogen, Carlsbad, CA) at 37°C, 5% CO2.

## COc1cc2c(cc1OC(C)C)[C@H](c1ccc(Cl)cc1)N(c1ccc(N(C)C[C@H]3CC[C@H](N4CCNC(=O)C4)CC3)cc1)C(=O)C2 [NVP-CFC218]
42-MG-BA, TP53 MUT
  Amax: -30.94%
  sensitivity call: insensitive (Sensitivity call for each compound was applied according to a cut-off of 4 µM for IC50 and -50% for Amax)
43/47
  share of sensitive cells expressing wild-type p53: 91.5%
57/100 p53 wild-type cell lines
  share of p53 wild-type cell lines scored insensitive: 57%
634 cell lines
  number of insensitive cell lines in wider cell line compendium: 557
  number of sensitive cell lines in wider cell line compendium: 77
697, TP53 WT
  Amax: -96.96%
  sensitivity call: sensitive (Sensitivity call for each compound was applied according to a cut-off of 4 µM for IC50 and -50% for Amax)
8505C, TP53 MUT
  Amax: -28.72%
  sensitivity call: insensitive (Sensitivity call for each compound was applied according to a cut-off of 4 µM for IC50 and -50% for Amax)
AN3 CA, TP53 MUT
  Amax: 5.06%
  sensitivity call: insensitive (Sensitivity call for each compound was applied according to a cut-off of 4 µM for IC50 and -50% for Amax)
B-CPAP, TP53 MUT
  Amax: 1.71%
  sensitivity call: insensitive (Sensitivity call for each compound was applied according to a cut-off of 4 µM for IC50 and -50% for Amax)
BEN, TP53 MUT
  Amax: 0.13%
  sensitivity call: insensitive (Sensitivity call for each compound was applied according to a cut-off of 4 µM for IC50 and -50% for Amax)
BFTC-905, TP53 MUT
  Amax: 0.25%
  sensitivity call: insensitive (Sensitivity call for each compound was applied according to a cut-off of 4 µM for IC50 and -50% for Amax)
BFTC-909, TP53 MUT
  Amax: 1.37%
  sensitivity call: insensitive (Sensitivity call for each compound was applied according to a cut-off of 4 µM for IC50 and -50% for Amax)
BT-20, TP53 MUT
  Amax: 1.40%
  sensitivity call: insensitive (Sensitivity call for each compound was applied according to a cut-off of 4 µM for IC50 and -50% for Amax)
BT-474, TP53 MUT
  Amax: -3.44%
  sensitivity call: insensitive (Sensitivity call for each compound was applied according to a cut-off of 4 µM for IC50 and -50% for Amax)
CAL-12T, TP53 MUT
  Amax: -18.61%
  sensitivity call: insensitive (Sensitivity call for each compound was applied according to a cut-off of 4 µM for IC50 and -50% for Amax)
CAL-78, TP53 MUT
  Amax: -1.01%
  sensitivity call: insensitive (Sensitivity call for each compound was applied according to a cut-off of 4 µM for IC50 and -50% for Amax)
CHL-1, TP53 MUT
  Amax: -46.61%
  sensitivity call: insensitive (Sensitivity call for each compound was applied according to a cut-off of 4 µM for IC50 and -50% for Amax)
CHP-212, TP53 WT
  Amax: -71.98%
  sensitivity call: sensitive (Sensitivity call for each compound was applied according to a cut-off of 4 µM for IC50 and -50% for Amax)
COLO 205, TP53 MUT
  Amax: -1.62%
  sensitivity call: insensitive (Sensitivity call for each compound was applied according to a cut-off of 4 µM for IC50 and -50% for Amax)
COLO 792, TP53 WT
  Amax: 2.74%
  sensitivity call: insensitive (Sensitivity call for each compound was applied according to a cut-off of 4 µM for IC50 and -50% for Amax)
COR-L23, TP53 WT
  Amax: -1.38%
  sensitivity call: insensitive (Sensitivity call for each compound was applied according to a cut-off of 4 µM for IC50 and -50% for Amax)
Capan-1, TP53 MUT
  Amax: 30.74%
  sensitivity call: insensitive (Sensitivity call for each compound was applied according to a cut-off of 4 µM for IC50 and -50% for Amax)
ChaGo-K-1, TP53 MUT
  Amax: -18.45%
  sensitivity call: insensitive (Sensitivity call for each compound was applied according to a cut-off of 4 µM for IC50 and -50% for Amax)
DMS 53, TP53 MUT
  Amax: 9.69%
  sensitivity call: insensitive (Sensitivity call for each compound was applied according to a cut-off of 4 µM for IC50 and -50% for Amax)
DU 145, TP53 MUT
  Amax: -4.91%
  sensitivity call: insensitive (Sensitivity call for each compound was applied according to a cut-off of 4 µM for IC50 and -50% for Amax)
Daoy, TP53 MUT
  Amax: 2.94%
  sensitivity call: insensitive (Sensitivity call for each compound was applied according to a cut-off of 4 µM for IC50 and -50% for Amax)
EB2, TP53 MUT
  Amax: -5.89%
  sensitivity call: insensitive (Sensitivity call for each compound was applied according to a cut-off of 4 µM for IC50 and -50% for Amax)
EFE-184, TP53 MUT
  Amax: -2.73%
  sensitivity call: insensitive (Sensitivity call for each compound was applied according to a cut-off of 4 µM for IC50 and -50% for Amax)
EFO-21, TP53 MUT
  Amax: 5.85%
  sensitivity call: insensitive (Sensitivity call for each compound was applied according to a cut-off of 4 µM for IC50 and -50% for Amax)
FU-OV-1, TP53 MUT
  Amax: -2.32%
  sensitivity call: insensitive (Sensitivity call for each compound was applied according to a cut-off of 4 µM for IC50 and -50% for Amax)
FaDu, TP53 MUT
  Amax: 8.93%
  sensitivity call: insensitive (Sensitivity call for each compound was applied according to a cut-off of 4 µM for IC50 and -50% for Amax)
G-401, TP53 WT
  Amax: -87.03%
  sensitivity call: sensitive (Sensitivity call for each compound was applied according to a cut-off of 4 µM for IC50 and -50% for Amax)
GI-1, TP53 MUT
  Amax: -2.97%
  sensitivity call: insensitive (Sensitivity call for each compound was applied according to a cut-off of 4 µM for IC50 and -50% for Amax)
GMS-10, TP53 MUT
  Amax: -4.00%
  sensitivity call: insensitive (Sensitivity call for each compound was applied according to a cut-off of 4 µM for IC50 and -50% for Amax)
HCC1806, TP53 MUT
  Amax: 1.11%
  sensitivity call: insensitive (Sensitivity call for each compound was applied according to a cut-off of 4 µM for IC50 and -50% for Amax)
HCC1954, TP53 MUT
  Amax: -0.81%
  sensitivity call: insensitive (Sensitivity call for each compound was applied according to a cut-off of 4 µM for IC50 and -50% for Amax)
HCC-15, TP53 MUT
  Amax: -21.49%
  sensitivity call: insensitive (Sensitivity call for each compound was applied according to a cut-off of 4 µM for IC50 and -50% for Amax)
HCT-15, TP53 MUT
  Amax: -20.00%
  sensitivity call: insensitive (Sensitivity call for each compound was applied according to a cut-off of 4 µM for IC50 and -50% for Amax)
HLF, TP53 MUT
  Amax: -3.09%
  sensitivity call: insensitive (Sensitivity call for each compound was applied according to a cut-off of 4 µM for IC50 and -50% for Amax)
HMC-1-8, TP53 MUT
  Amax: -1.67%
  sensitivity call: insensitive (Sensitivity call for each compound was applied according to a cut-off of 4 µM for IC50 and -50% for Amax)
Hep G2, TP53 WT
  Amax: -62.73%
  sensitivity call: sensitive (Sensitivity call for each compound was applied according to a cut-off of 4 µM for IC50 and -50% for Amax)
Homo sapiens, 8-MG-BA, TP53 MUT
  IC50: > 8 µM
Homo sapiens, 42-MG-BA, TP53 MUT
  IC50: > 8 µM
Homo sapiens, 697, TP53 WT
  IC50: 1.59 µM
Homo sapiens, 769-P, TP53 WT
  IC50: 3.01 µM
Homo sapiens, 786-0, 786-O, TP53 MUT
  IC50: > 8 µM
Homo sapiens, 5637, TP53 MUT
  IC50: > 8 µM
Homo sapiens, 8505C, TP53 MUT
  IC50: > 8 µM
